In patent US8846861B2, “Peptide clearing agents” (Mologic Ltd, priority 2009, dated 2014):
pIC50, pKd: −log10 of the molar value. Entries after “also recorded” stand apart in the source; their conditions may differ. Where two headings read alike, the source gives them in different places.

Experiments:
[1] = target: CPG2 enzyme activity of ScFV anti CEA-CPG2; test: Spectrophotometric CPG2 enzyme inhibition assay (methotrexate hydrolysis, absorbance at 320 nm); assay type: biochemical, Psuedomonas; details: for pIC50: methotrexate substrate 60 μM, 37° C., pH 7.3; for inhibition of CPG2 activity (in words): spectrophotometric assay
Description: Enzyme Inhibition Assay Method Used for the Assessment of CP014 as an Inhibitor of CPG2 Activity
The effect that CP014 had on CPG2 activity was measured using a spectrophotometric assay. CP014 was dissolved in assay buffer (0.1 M Tris-HCl buffer at pH 7.3 containing 0.2 mM zinc chloride) to give a concentration of 40 mM. Various aliquots of this solution were added to cuvettes and assay buffer was added to adjust the volume of solution in each cuvette to 900 μL. 100 μL aliquots of 0.6 mM methotrexate solution in assay buffer were added to each cuvette to give a methotrexate substrate concentration of 0.06 mM (60 μM). The range of the concentration of CP014 in the cuvettes was 0-400 μM.
The substrate solutions in the cuvettes were heated to 37° C. in an oven. The cuvettes were then placed in turn in a spectrophotometer which was maintained at 37° C. using a Peltier. The assays were commenced by adding a 10 μL aliquot of fusion protein (ScFV anti CEA-CPG2) solution or CPG2 solution, followed by brief stirring. The hydrolysis of the methotrexate substrate was monitored by measuring the decrease in absorbance at 320 nm.
One unit (1 U) of CPG2 activity is defined as the amount of enzyme which catalyses the hydrolysis of 1 μmol of methotrexate per minute at 37° C. The molar extinction coefficient of methotrexate was taken as 8300 L mol^−1 cm^−1. For each assay a plot of absorbance versus time was created and a straight line was fitted to the data between 0 and 0.2 minutes. The slope of the straight line was then multiplied by minus 12 and the dilution factor of the ScFV anti CEA-CPG2/CPG2 solution to give the enzyme activity in U/mL.
A variation of the assay was to incubate various amounts of CP014 with ScFV anti CEA-CPG2 or CPG for a period of time at 4° C. prior to CPG2 assay. Following this incubation step, a 10 μL aliquot of each mixture was added to a cuvette that contained a 1 mL aliquot of 0.06 mM methotrexate in assay buffer at 37° C. After stirring the contents of the cuvette, the measurement of the decrease in absorbance and subsequent determination of enzyme activity were carried out as described above.
The effectiveness of CP014 in inhibiting CPG2 activity was expressed in terms of its IC50 value, i.e. the half maximal inhibitory concentration. Using GraphPad Prism 5 software, the IC50 value was determined by applying non-linear regression to a plot of enzyme activity versus the logarithm of the CP014 concentration.

ScFV anti CEA-CPG2 = test: Non-amplified Amplex Red assay for screening of potential CPG2 substrates; assay type: biochemical, Psuedomonas; details: for substrate potential for CPG2 (in words): Amplex Red fluorescence, CP014 12.5 and 100 μM, FIG. 10 substrate 12.5 μM
Text: Non-Amplified Amplex Red Assay for the Screening of Potential CPG2 Substrates
It was established that CP014 is a potential inhibitor of CPG2 activity using a spectrophotometric assay. […] The so-called Amplex Red assay can be used to measure to measure L-glutamate in food samples and continuously monitor glutamate oxidase activity. By eliminating an amplification step in the assay procedure, it was possible to screen compounds as substrates for CPG2. In the modified assay, L-glutamic acid that has been cleaved from a substrate of CPG2 is oxidised by glutamate oxidase to produce α-ketoglutarate, ammonia and hydrogen peroxide. The hydrogen peroxide then reacts with 10-acetyl-3,7-dihydroxyphenoxazine (Amplex Red reagent) in a 1:1 stoichiometry in a reaction catalysed by horseradish peroxidise (HRP) to generate the highly fluorescent product, resorufin.
25 μM and 200 μM solutions of CP014 in assay buffer (0.1 M Tris-HCl buffer at […] containing 0.2 mM zinc chloride), and a 25 μM solution of folic acid in assay buffer were prepared. The Amplex Red reagent mixture was prepared by combining 2.5 μL 10 mM solution of Amplex Red reagent in DMSO, 5 μL HRP solution in assay buffer (100 U/mL), 32 μL L-glutamate oxidase solution in assay buffer (5 U/mL) and 460.5 μL assay buffer solution. ScFV anti CEA-CPG2 fusion protein was diluted appropriately using assay buffer.
A 50 μL aliquot of CP014 solution or 25 μM folic acid solution and a 50 μL aliquot of the Amplex Red reagent mixture were added to a well of a black microtitre plate. The plate was covered, then incubated at 37° C. for 10 minutes. The cover was removed and a 1 μL aliquot of ScFV anti CEA-CPG2 was added. After brief stirring, the plate was placed in a BMG Fluostar Omega plate reader and the fluorescence intensity was monitored over a 245 second period at 5 second intervals. The excitation filter wavelength was set at 544 nm and the emission filter wavelength was set at 590 nm.
When ScFV anti CEA-CPG2 was diluted to a concentration of approximately 2 U/mL, the slope value that was calculated for the 12.5 μM folic acid control assay was approximately 4.0.

[2] = test system: ScFv anti CEA-CPG2 fusion protein; test: Binding studies using Surface Plasmon Resonance (Biacore), peptide immobilised on CM5 chip; design: species or system Psuedomonas
Text: Peptide clearing agents of the invention are exemplified herein displaying appropriate kinetics and affinity properties. Such kinetic and affinity properties may be measured using any suitable means. Kinetic and affinity parameters may be derived based upon binding studies using Surface Plasmon Resonance (SPR), which is a well known technique (and commercially available, for example from GE Healthcare—Biacore system). Data obtained using a suitable instrument may be analysed by appropriate software to automatically derive the relevant parameters. An appropriate binding model may be applied by the software to ensure the fit to the curves is as close as possible. A chi2 value of less than 0.2 may be considered an acceptable fit.
Binding Studies Using Surface Plasmon Resonance (SPR)
Peptides were coupled to a CM5 chip using EDC/NHS chemistry as recommended by the manufacturer (GE healthcare). Analytes were made up in HBS-P buffer (0.01 M HEPES pH 7.4, 0.15 M NaCl, 0.005% v/v Surfactant P20) and injected over the surface for 180 seconds at 5 μl/min followed by a dissociation time of 300 seconds. Residual binding was removed using two 10 second injections of regeneration buffer (10 mM CHAPS, 1 mM Guanidinium hydrochloride, 2 M NaCl). Response signals and baselines were checked for consistency throughout the experiment and flow rates of 15 and 75 μl/min were tested to confirm minimal effects due to mass transport.
FIGS. 6a and 6c each show four sensorgrams overlaid. These are the blank-subtracted real time responses from injections of 12.5, 25, 50 and 100 nM ScFVanti-CEA-CPG2 over the chip surface of immobilised CP014 peptide. The data has been fitted using two different algorithms supplied in the BiaCore software (“Biaevaluation”). The first, shown in FIG. 6a, was a 1:1 binding model (Langmuir) and the second, shown in FIG. 6c, was a 2-state reaction fit. Both fits align closely to the normalised sensorgrams. […] In addition, the Chi2 values are 0.154 and 0.0882 respectively and are within the acceptable range (<0.2) for these types of calculation. For both fits the dissociation constant (binding constant KD) was in close agreement at 5 nM and 9 nM, respectively.

**Q.** Which results are given for `Nc1ccc2ccccc2c1C(=O)N[C@@H](CCC(=O)O)C(=O)O` [CP006, Amino-Naphthoic Acid (ANA)-Glutamate (Glu)]?
**A.** pIC50 [1]: 4.05; pIC50 ([1]; listed as formula I): ~4.05; inhibition of CPG2 activity (in words) [1]: is an inhibitor; substrate potential for CPG2 (in words) (ScFV anti CEA-CPG2): Poor Substrate; also recorded: low substrate activity; substrate potential for CPG2 (in words) (ScFV anti CEA-CPG2; listed as formula I): not acted upon as a substrate; affinity for the active site of CPG2 (in words) [2]: nanomolar affinity

**Q.** With `Nc1nc2ncc(CNc3ccc(C(=O)N[C@@H](CCC(=O)O)C(=O)O)cc3)nc2c(=O)[nH]1` [Folic acid, reference compound] as the molecule, how does the “slope of fluorescence intensity versus time” value (ScFV anti CEA-CPG2; 12.5 μM in well, ScFV anti CEA-CPG2 approximately 2 U/mL) read?
**A.** The value was “approximately 4.0”.

**Q.** What about the “substrate potential for CPG2 (in words)” value (ScFV anti CEA-CPG2) of the same molecule?
**A.** Its value is “positive controls”.

**Q.** For `CN(Cc1cnc2nc(N)nc(N)c2n1)c1ccc(C(=O)N[C@@H](CCC(=O)O)C(=O)O)cc1` [methotrexate, reference compound], which “substrate potential for CPG2 (in words)” value (ScFV anti CEA-CPG2) is on record?
**A.** Its value is “positive controls”.

**Q.** How did the pIC50 [1] turn out when `C[C@@H](NC(=O)[C@@H](N)CO[C@H]1OC(CO)[C@H](O)C(O)C1O)C(=O)Nc1ccc2ccccc2c1C(=O)NC(CCC(=O)O)C(=O)O` (stereo partly drawn) [CP014] was run?
**A.** Its pIC50 is 3.96.

**Q.** And the pIC50 ([1]; listed as formula II)?
**A.** The pIC50 was roughly 3.96.

**Q.** What about the “inhibition of CPG2 activity (in words)” value [1] of the same molecule?
**A.** Its value is “inhibits CPG2 activity; also recorded: is an inhibitor”.

**Q.** And the “slope of fluorescence intensity versus time, against negative control (in words)” value (ScFV anti CEA-CPG2; 12.5 and 100 μM in the plate well)?
**A.** Its value is “no greater than that of the negative control sample”.

**Q.** What about the “substrate potential for CPG2 (in words)” value (ScFV anti CEA-CPG2) of the same molecule?
**A.** Its value is “not a substrate; also recorded: not altered or used as a substrate; also recorded: not turned over”.

**Q.** And the “substrate potential for CPG2 (in words)” value (ScFV anti CEA-CPG2; listed as formula II)?
**A.** Its value is “not acted upon as a substrate”.

**Q.** What about the “affinity for the active site of CPG2 (in words)” value [2] of the same molecule?
**A.** The value was “nanomolar affinity”.

**Q.** What about the “KA (equilibrium association constant)” value ([2]; 1:1 Langmuir fit) of the same molecule?
**A.** The value was 1.98e+08 M⁻¹.

**Q.** And the “Ka (association rate constant)” value ([2]; 1:1 Langmuir fit)?
**A.** Its value is 226000 M⁻¹ s⁻¹.

**Q.** What about the “Kd (dissociation rate constant)” value ([2]; 1:1 Langmuir fit) of the same molecule?
**A.** The value was 0.00114 s⁻¹.

**Q.** And the pKd ([2]; 1:1 Langmuir fit, read-out: KD (dissociation constant))?
**A.** Its pKd is 8.30.

**Q.** What about the pKd ([2]; 1:1 Langmuir fit, read-out: dissociation constant (binding constant KD)) of the same molecule?
**A.** The pKd was 8.30.

**Q.** What about the “K (equilibrium association constant)” value ([2]; 2 state reaction fit) of the same molecule?
**A.** Its value is 1.09e+08 M⁻¹.

**Q.** And the ka1 ([2]; 2 state reaction fit)?
**A.** Its ka1 is 284000 M⁻¹ s⁻¹.

**Q.** What about the ka2 ([2]; 2 state reaction fit) of the same molecule?
**A.** Its ka2 is 0.014 s⁻¹.

**Q.** What about the kd1 ([2]; 2 state reaction fit) of the same molecule?
**A.** The kd1 was 0.0258 s⁻¹.

**Q.** What about the kd2 ([2]; 2 state reaction fit) of the same molecule?
**A.** Its kd2 is 0.00158 s⁻¹.

**Q.** And the pKd ([2]; 2 state reaction fit, read-out: dissociation constant (binding constant KD))?
**A.** The pKd was 8.05.
